The source of these data is patent US10869846B2, “N-acetylcysteine amide (NAC amide) in the treatment of diseases and conditions associated with oxidative stress” (SENTIENT LIFESCIENCES, INC., priority 2005, dated 2020).

This experiment relates to Sprague Dawley rats. Briefly: GSH and CYS levels in tissues after 6Gy total-body x-ray radiation. The format is in vivo, rat. To be noted: for CYS level / GSH level / CYS Mean / GSH Mean: 6Gy total-body x-ray, 500 mg/kg orally; for CYS level / GSH level: individual animals; for CYS Mean / GSH Mean: n = 3. On the procedure: Animal studies: The irradiation of rats was performed at the Radiation Oncology Department of the Phelps County Regional Medical Center in Rolla, Mo., using a 16 MeV beam generated by a Varian linear accelerator, model Clinac 1800, and in accordance with the standards of humane laboratory animal protocols. A 20×20 or 25×25 cm field was used and output factors were checked once a week. Twelve animals were divided into 4 groups each containing 3 animals (Control, XRT, NAC amide+XRT and NAC+XRT). The radiation (XRT) control received whole body irradiation by 6 Gy of 16 MeV electrons. The NAC amide+XRT group received 500 mg/kg/day NAC amide immediately before irradiation and for three days after until sacrifice. The rats were anesthetized and heparinized blood was collected via cardiopuncture. Following sacrifice, liver, lung, brain and spleen were removed and stored at −70° C. until homogenization.
All experiments were performed using adult Albino SASCO Sprague Dawley female rats weighing about 250 g, which were purchased from Charles River Laboratories Inc. (Portage, Mich.). Twelve rats were shipped in paper crates (4 in each crate). Rats were delivered with a certificate including serological, bacteriological, pathological parasitological information. They were divided into 4 cages (3 rats in each cage) and kept in a temperature controlled (20° C.) room equipped to maintain a 12 h light-dark cycle. Standard rat chow (Purina rat chow) and tap water were supplied in individual glass bottle and given ad libitum. Water was changed daily. Weights of the animal were taken before giving the NAC amide treatment solution and amount of food eaten and water consumed was not measured because NAC amide was given orally but not in the drinking water or food.
NAC amide was provided by Novetide Ltd (Haifa Bay, Israel) including certificate of analysis and MSDS (lot #40233-64). NAC amide feeding solution was prepared freshly each day right before the administration by weighing 1.25 g NAC amide solid sample (Type HR-120 electronic balance, A&D Company limited, Japan. S/N: 12202464) and adding into 10 ml PBS solution and put on ice. One ml of this solution was administrated (gavaged) per rat orally by using animal feeding biomedical needles and 3 ml BD Luer-Lok Tip syringes. Rats received one-dose total-body 6 Gy/16 MeV x-ray radiation and 3 rats in each group were held in a covered bucket and received radiation at the same time. Each day at the same time, 500 mg/Kg body weight of NAC amide was administrated to the animals.
For GSH and CYS levels, 250 μL tissue homogenate was used to react with 750 μL NPM solution, therefore, the total volume was 1000 μL.
Oxidative Stress Parameters in Animals: After the blood samples were drawn, the animals were perfused by a cold antioxidant buffer first and then liver, brain and kidney samples were collected aseptically, rinsed in ice-cold saline and placed in petri dishes maintained on ice. The tissue samples kept at −70° C. for the GSH, GSSG, and MDA determinations were made.
Glutathione (GSH) and Glutathione Disulfide (GSSG) Determination: Cells or tissue samples were homogenized on ice and derivatized with N-(1-pyrenyl)-maleimide (NPM). The derivatized samples were injected onto a 3 μm C18 column (Column Engineering) in a reverse phase HPLC system with a mobile phase of 35% water, 65% acetonitrile containing 1 mL/L of acetic acid and o-phosphoric acid (R. Winters, et al., Anal. Biochem., 227:14-21 (1995) and H. H. Draper et al., Free Rad. Biol. Med., 15:353-363 (1993)). Malondialdehyde (MDA) determinations were made as described in J. Gutteridge, Anal. Biochem., 69: 518-526 (1975).

[1] abbreviates: BRAIN, listed as AD4, 500 mg/kg.
Setting [2] is: KIDNEY, listed as AD4, 500 mg/kg.
Where [3] appears, read: LIVER, listed as AD4, 500 mg/kg.
Where [4] appears, read: PLASMA, listed as AD4, 500 mg/kg.

Where “and” joins values, the source holds several entries; their conditions need not be identical. Equal entries are not always repeated. Marks after values point to notes of the source that are not given here.

With `CC(=O)N[C@@H](CS)C(=O)O` [NAC, N-acetylcysteine], the CYS level was 4.16 nmol/mg and 3.76 nmol/mg and 4.47 nmol/mg (BRAIN, 500 mg/kg); 12.23 nmol/mg and 12.16 nmol/mg and 11.03 nmol/mg (KIDNEY, 500 mg/kg); 1.25 nmol/mg and 1.61 nmol/mg and 1.51 nmol/mg (LIVER, 500 mg/kg); 1.16 nmol/mg and 2.64 nmol/mg and 2.43 nmol/mg (LUNG, 500 mg/kg); 14.64 nmol/mg and 13.75 nmol/mg and 14.36 nmol/mg (PLASMA, 500 mg/kg). The GSH level by setting is: (BRAIN, 500 mg/kg) 7.32 nmol/mg and 6.74 nmol/mg and 7.15 nmol/mg; (KIDNEY, 500 mg/kg) 5.95 nmol/mg and 6.44 nmol/mg and 6.33 nmol/mg; (LIVER, 500 mg/kg) 15.23 nmol/mg and 16.80 nmol/mg and 16.93 nmol/mg; (LUNG, 500 mg/kg) 5.19 nmol/mg and 7.24 nmol/mg and 4.95 nmol/mg; (PLASMA, 500 mg/kg) 7.08 nmol/mg and 6.18 nmol/mg and 6.27 nmol/mg. In addition, the “CYS Mean” value is given as 4.1 nmol/mg (BRAIN); 11.8** nmol/mg (KIDNEY); 1.5 nmol/mg (LIVER); 1.9 nmol/mg (LUNG); 14.2*** nmol/mg (PLASMA). In addition, the “GSH Mean” value is listed as 7.0 nmol/mg (BRAIN); 6.2** nmol/mg (KIDNEY); 16.3 nmol/mg (LIVER); 5.8 nmol/mg (LUNG); 6.5**/*** nmol/mg (PLASMA). Further, the “GSH levels in tissues” value (after radiation exposure) is given as “does not increase”.
N-acetylcysteine amide [NAC amide]: the CYS level under setting [1] was 4.47 nmol/mg and 4.32 nmol/mg and 4.26 nmol/mg; the CYS level under setting [2] was 16.91 nmol/mg and 11.09 nmol/mg and 10.81 nmol/mg; the CYS level under setting [3] was 1.51 nmol/mg and 1.53 nmol/mg (2×); the CYS level (LUNG, listed as AD4, 500 mg/kg) is 1.43 nmol/mg and 1.61 nmol/mg and 0.91 nmol/mg; the CYS level under setting [4] was 16.00 nmol/mg and 15.45 nmol/mg and 15.40 nmol/mg. Besides, the GSH level is 7.93 nmol/mg and 7.84 nmol/mg and 6.98 nmol/mg under setting [1]; 4.39 nmol/mg and 6.22 nmol/mg and 5.02 nmol/mg under setting [2]; 17.45 nmol/mg and 16.73 nmol/mg and 17.50 nmol/mg under setting [3]; 5.12 nmol/mg and 5.27 nmol/mg and 6.28 nmol/mg (LUNG, listed as AD4, 500 mg/kg); 7.10 nmol/mg and 7.44 nmol/mg and 7.94 nmol/mg under setting [4]. The “CYS Mean” value reads like this: (BRAIN) 4.4 nmol/mg; (KIDNEY) 12.9** nmol/mg; (LIVER) 1.5 nmol/mg; (LUNG) 1.3 nmol/mg; (PLASMA) 15.6** nmol/mg. Also, the “GSH Mean” value is 7.6** nmol/mg (BRAIN); 5.2 nmol/mg (KIDNEY); 17.2** nmol/mg (LIVER); 5.6 nmol/mg (LUNG); 7.6** nmol/mg (PLASMA). Moreover, the “thiol levels in plasma and liver” value (after radiation exposure) was “significantly increases”.
